Assays:
[1] = tested on: ABUTH (Abutilon theophrasti); experiment: Postemergence herbicidal evaluation; format: in vivo, Medic.
How it was run: (§1)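 Visual 0–9 injury scores versus control plants, covering stand, vigour, malformation, size, chlorosis and general appearance, taken four to five weeks post-spray and averaged over replicate tests. Plants were sprayed at roughly two weeks old and held on greenhouse benches.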

[2] = tested on: AMBEL (Ambrosia artemisifolia); experiment: Postemergence herbicidal evaluation; format: in vivo, L.
How it was run: as §1

[3] = tested on: CASOB (Cassia obtusifolia); experiment: Postemergence herbicidal evaluation; format: in vivo, L.
How it was run: as §1

[4] = tested on: CHEAL (Chenopodium album); experiment: Postemergence herbicidal evaluation; format: in vivo, L.
How it was run: as §1

GALAP (Galium aparine) [5] = experiment: Postemergence herbicidal evaluation; format: in vivo
How it was run: as §1

[6] = tested on: IPOHE (Ipomoea hederacea); experiment: Postemergence herbicidal evaluation; format: in vivo, (L.) Jacq.
How it was run: as §1

[7] = tested on: ECHCG (Echinochloa crus-galli); experiment: Postemergence herbicidal evaluation; format: in vivo, (L.) Beau
How it was run: as §1

SETVI (Setaria viridis) [8] = experiment: Postemergence herbicidal evaluation; format: in vivo, (L.) Beau
How it was run: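 Seedlings about two weeks old were sprayed with compound in 50/50 acetone/water plus 0.5% TWEEN 20, at the equivalent of about 0.0040 to 1.000 kg/ha. Plants were kept in a greenhouse and visually rated 0-9 against a control four to five weeks after treatment. Repeat tests were averaged.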

[9] = tested on: GLXMAW (Soybean, Williams); experiment: Postemergence herbicidal evaluation; format: in vivo, Glycine max, (L.) Merr. cv Williams
How it was run: as §1

ORYSAT (Rice, Tebonnet) [10] = experiment: Postemergence herbicidal evaluation; format: in vivo, Oryza sativa, (L.) Tebonnet
How it was run: as §1

[11] = tested on: TRZAWR (Wheat, Winter, cv Riband); experiment: Postemergence herbicidal evaluation; format: in vivo, Triticum aestivum
How it was run: as §1

ZEAMX (Corn, Field) [12] = experiment: Postemergence herbicidal evaluation; format: in vivo, Zea mays, L.
How it was run: as §1

[13] = tested on: ABUTH (Abutilon theophrasti); experiment: Preemergence herbicidal evaluation; format: in vivo, Medic.; conditions: preemergence, rated 4-5 weeks after treatment
[14] = tested on: AMBEL (Ambrosia artemisifolia); experiment: Preemergence herbicidal evaluation; format: in vivo, L.; conditions: preemergence, rated 4-5 weeks after treatment
How it was run: (§2)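 Rating 0–9, visual, vs control; 4–5 wk after spraying seeded cups with compound in aq. acetone; conventional greenhouse care.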

[15] = tested on: CASOB (Cassia obtusifolia); experiment: Preemergence herbicidal evaluation; format: in vivo, L.; conditions: preemergence, rated 4-5 weeks after treatment
How it was run: as §2

[16] = tested on: CHEAL (Chenopodium album); experiment: Preemergence herbicidal evaluation; format: in vivo, L.; conditions: preemergence, rated 4-5 weeks after treatment
How it was run: as §2

GALAP (Galium aparine) [17] = experiment: Preemergence herbicidal evaluation; format: in vivo; conditions: preemergence, rated 4-5 weeks after treatment
How it was run: as §2

[18] = tested on: IPOHE (Ipomoea hederacea); experiment: Preemergence herbicidal evaluation; format: in vivo, (L.) Jacq.; conditions: preemergence, rated 4-5 weeks after treatment
[19] = tested on: ECHCG (Echinochloa crus-galli); experiment: Preemergence herbicidal evaluation; format: in vivo, (L.) Beau; conditions: preemergence, rated 4-5 weeks after treatment
How it was run: as §2

SETVI (Setaria viridis) [20] = experiment: Preemergence herbicidal evaluation; format: in vivo, (L.) Beau; conditions: preemergence, rated 4-5 weeks after treatment
How it was run: as §2

[21] = tested on: GLXMAW (Soybean, Williams); experiment: Preemergence herbicidal evaluation; format: in vivo, Glycine max, (L.) Merr. cv Williams; conditions: preemergence, rated 4-5 weeks after treatment
ORYSAT (Rice, Tebonnet) [22] = experiment: Preemergence herbicidal evaluation; format: in vivo, Oryza sativa, (L.) Tebonnet; conditions: preemergence, rated 4-5 weeks after treatment
[23] = tested on: TRZAWR (Wheat, Winter, cv Riband); experiment: Preemergence herbicidal evaluation; format: in vivo, Triticum aestivum; conditions: preemergence, rated 4-5 weeks after treatment
How it was run: as §2

ZEAMX (Corn, Field) [24] = experiment: Preemergence herbicidal evaluation; format: in vivo, Zea mays, L.; conditions: preemergence, rated 4-5 weeks after treatment
[25] = tested on: ECHORC (Echinochloa oryzoides); experiment: Flooded paddy, preemergence weed control; format: in vivo, Echinochloa oryzoides (Ard.) Fritsch.; conditions: rate 0.1250 kg/ha, rated 3-4 weeks after treatment, 0-9 rating scale
How it was run: (§3)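 Seeds or propagules were planted in the top 0.5 cm of silt loam soil and kept flooded 1.5–3 cm above the surface throughout, then held in the greenhouse. Injury was rated visually on a 0–9 scale against untreated controls, covering stand, vigor, malformation, size and chlorosis.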

CYPIR (Cyperus iria) = experiment: Flooded paddy, preemergence weed control; format: in vivo; conditions: rate 0.1250 kg/ha, rated 3-4 weeks after treatment, 0-9 rating scale
How it was run: as §3

[26] = tested on: CYPSE (Cyperus serotinus); experiment: Flooded paddy, preemergence weed control; format: in vivo, Rottb.; conditions: rate 0.1250 kg/ha, rated 3-4 weeks after treatment, 0-9 rating scale
Method: Results of herbicide evaluation are expressed on a rating scale (0-9). The scale is based upon a visual observation of plant stand, vigor, malformation, size, chlorosis and overall plant appearance as compared with a control.
Preemergence herbicidal activity under flooded paddy conditions is determined as follows: plant seeds or propagating organs are planted in the top 0.5 cm of silt loam soil in 32 oz. plastic containers with a diameter of 10.5 cm and no drainage holes. Water is added to these containers and maintained at 1.5 to 3 cm above the soil surface for the duration of the experiment. The test compounds are applied as aqueous/acetone mixtures 50/50 v/v pipetted directly into the flood water to give the equivalent of about 0.0080 to 0.1250 kg/ha of active ingredient. The treated containers are placed on greenhouse benches and cared for in accordance with conventional greenhouse procedures. Three to four weeks after treatment, the test is terminated and each container is examined and herbicidal effect rated according to the rating system provided in Example 87.

[27] = tested on: MOOVA (Monochoria vaginalis); experiment: Flooded paddy, preemergence weed control; format: in vivo, Presl.; conditions: rate 0.1250 kg/ha, rated 3-4 weeks after treatment, 0-9 rating scale
How it was run: as §3

[28] = tested on: SAGPY (Sagittaria pygmaea); experiment: Flooded paddy, preemergence weed control; format: in vivo, L.; conditions: rate 0.1250 kg/ha, rated 3-4 weeks after treatment, 0-9 rating scale
How it was run: as §3

ORYSAT (Rice, Tebonnet) [29] = experiment: Flooded paddy, post-transplant rice tolerance; format: in vivo, Oryza sativa, (L.) Tebonnet; conditions: flooded paddy, post-transplant rice; rate 0.1250 kg/ha; rated 3-4 weeks after treatment; 0-9 rating scale
How it was run: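 Two ten-day-old seedlings were transplanted into silt loam, flooded and held at 1.5 to 3 cm water above the soil before herbicide treatment. Pots stayed in the greenhouse at that water level. Injury was scored visually on a 0-9 scale versus untreated control.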

Structure (SMILES): Cc1nnc(-c2nsc3ccc(-n4c(=O)cc(C(F)(F)F)n(C)c4=O)cc23)o1 [Compound 16, 1-methyl-3-[3-(5-methyl-1,3,4-oxadiazol-2-yl)-1,2-benzisothiazol-5-yl]-6-(trifluoromethyl)uracil]
- Postemergence herbicidal rating, ABUTH ([1]; rate 0.1250 kg/ha): 4.5
- Postemergence herbicidal rating, AMBEL ([2]; rate 0.1250 kg/ha): 4.5
- Postemergence herbicidal rating, CASOB ([3]; rate 0.1250 kg/ha): 3.5
- Postemergence herbicidal rating, CHEAL ([4]; rate 0.1250 kg/ha): 3.5
- Postemergence herbicidal rating, GALAP (GALAP (Galium aparine) [5]; rate 0.1250 kg/ha): 3.0
- Postemergence herbicidal rating, IPOHE ([6]; rate 0.1250 kg/ha): 4.5
- Postemergence herbicidal rating, ECHCG ([7]; rate 0.1250 kg/ha): 1.5
- Postemergence herbicidal rating, SETVI (SETVI (Setaria viridis) [8]; rate 0.1250 kg/ha): 4.5
- Postemergence herbicidal rating, GLXMAW ([9]; rate 0.1250 kg/ha): 5.8
- Postemergence herbicidal rating, ORYSAT (ORYSAT (Rice, Tebonnet) [10]; rate 0.1250 kg/ha): 3.0
- Postemergence herbicidal rating, TRZAWR ([11]; rate 0.1250 kg/ha): 3.0
- Postemergence herbicidal rating, ZEAMX (ZEAMX (Corn, Field) [12]; rate 0.1250 kg/ha): 4.3
- ABUTH preemergence herbicidal rating ([13]; Rate 0.2500 kg/ha): 9.0
- AMBEL preemergence herbicidal rating ([14]; Rate 0.2500 kg/ha): 9.0
- CASOB preemergence herbicidal rating ([15]; Rate 0.2500 kg/ha): 9.0
- CHEAL preemergence herbicidal rating ([16]; Rate 0.2500 kg/ha): 9.0
- GALAP preemergence herbicidal rating (GALAP (Galium aparine) [17]; Rate 0.2500 kg/ha): 7.0
- IPOHE preemergence herbicidal rating ([18]; Rate 0.2500 kg/ha): 9.0
- ECHCG preemergence herbicidal rating ([19]; Rate 0.2500 kg/ha): 9.0
- SETVI preemergence herbicidal rating (SETVI (Setaria viridis) [20]; Rate 0.2500 kg/ha): 9.0
- GLXMAW preemergence herbicidal rating ([21]; Rate 0.2500 kg/ha): 7.5
- ORYSAT preemergence herbicidal rating (ORYSAT (Rice, Tebonnet) [22]; Rate 0.2500 kg/ha): 7.0
- TRZAWR preemergence herbicidal rating ([23]; Rate 0.2500 kg/ha): 7.0
- ZEAMX preemergence herbicidal rating (ZEAMX (Corn, Field) [24]; Rate 0.2500 kg/ha): 7.5
- herbicidal rating, ECHORC [25]: 8.0
- herbicidal rating, CYPIR (CYPIR (Cyperus iria)): 8.5
- herbicidal rating, CYPSE [26]: 6.0
- herbicidal rating, MOOVA [27]: 9.0
- herbicidal rating, SAGPY [28]: 4.5
- herbicidal rating, ORYSAT (rice tolerance) (ORYSAT (Rice, Tebonnet) [29]): 5.5

Structure (SMILES): Cn1c(C(F)(F)F)cc(=O)n(-c2cc3c(-c4ccccn4)nsc3cc2F)c1=O [Compound 25, 3-[6-fluoro-3-(2-pyridyl)-1,2-benzisothiazol-5-yl]-1-methyl-6-(trifluoromethyl)uracil]
- Postemergence herbicidal rating, ABUTH ([1]; rate 0.0620 kg/ha): 9.0
- Postemergence herbicidal rating, AMBEL ([2]; rate 0.0620 kg/ha): 9.0
- Postemergence herbicidal rating, CASOB ([3]; rate 0.0620 kg/ha): 9.0
- Postemergence herbicidal rating, CHEAL ([4]; rate 0.0620 kg/ha): 9.0
- Postemergence herbicidal rating, GALAP (GALAP (Galium aparine) [5]; rate 0.0620 kg/ha): 4.0
- Postemergence herbicidal rating, IPOHE ([6]; rate 0.0620 kg/ha): 9.0
- Postemergence herbicidal rating, ECHCG ([7]; rate 0.0620 kg/ha): 3.0
- Postemergence herbicidal rating, SETVI (SETVI (Setaria viridis) [8]; rate 0.0620 kg/ha): 9.0
- Postemergence herbicidal rating, GLXMAW ([9]; rate 0.0620 kg/ha): 9.0
- Postemergence herbicidal rating, ORYSAT (ORYSAT (Rice, Tebonnet) [10]; rate 0.0620 kg/ha): 3.0
- Postemergence herbicidal rating, TRZAWR ([11]; rate 0.0620 kg/ha): 4.5
- Postemergence herbicidal rating, ZEAMX (ZEAMX (Corn, Field) [12]; rate 0.0620 kg/ha): 7.0
- ABUTH preemergence herbicidal rating ([13]; Rate 0.1250 kg/ha): 9.0
- AMBEL preemergence herbicidal rating ([14]; Rate 0.1250 kg/ha): 9.0
- CASOB preemergence herbicidal rating ([15]; Rate 0.1250 kg/ha): 9.0
- CHEAL preemergence herbicidal rating ([16]; Rate 0.1250 kg/ha): 9.0
- GALAP preemergence herbicidal rating (GALAP (Galium aparine) [17]; Rate 0.1250 kg/ha): 5.0
- IPOHE preemergence herbicidal rating ([18]; Rate 0.1250 kg/ha): 9.0
- ECHCG preemergence herbicidal rating ([19]; Rate 0.1250 kg/ha): 9.0
- SETVI preemergence herbicidal rating (SETVI (Setaria viridis) [20]; Rate 0.1250 kg/ha): 9.0
- GLXMAW preemergence herbicidal rating ([21]; Rate 0.1250 kg/ha): 7.0
- ORYSAT preemergence herbicidal rating (ORYSAT (Rice, Tebonnet) [22]; Rate 0.1250 kg/ha): 9.0
- TRZAWR preemergence herbicidal rating ([23]; Rate 0.1250 kg/ha): 9.0
- ZEAMX preemergence herbicidal rating (ZEAMX (Corn, Field) [24]; Rate 0.1250 kg/ha): 8.0
- herbicidal rating, ECHORC [25]: 9.0
- herbicidal rating, CYPIR (CYPIR (Cyperus iria)): 9.0
- herbicidal rating, CYPSE [26]: 9.0
- herbicidal rating, MOOVA [27]: 9.0
- herbicidal rating, SAGPY [28]: 9.0
- herbicidal rating, ORYSAT (rice tolerance) (ORYSAT (Rice, Tebonnet) [29]): 9.0

Reference: US6706663B2, “Herbicidal 3-heterocyclic substituted benzisothiazole and benzisoxazole compounds” (Wyeth, priority 2000, dated 2004)
